The target of assay [1] is T1, BRD4 (BDI_K57-E168) (Homo sapiens, UniProt O60885).
T1 construct: BD1: amino acids K57-E168; made in house
Briefly: TR-FRET bromodomain binding assay, first bromodomain of BRD4. The conditions noted are these: TR-FRET assay protocol G (compound 0.92 μM-15 pM); 100 nM probe. Here is the method:
(§1) Bromodomain Domain Binding Assay
(§2) A time-resolved fluorescence resonance energy transfer (TR-FRET) assay was used to determine the affinities of compounds of the Examples listed in Table 1 for each bromodomain of BRD4. His-tagged first (BD1: amino acids K57-E168) and second (BD2: amino acids […]) bromodomains of BRD4 were expressed and purified. An Alexa647-labeled BET-inhibitor was used as the fluorescent probe in the assay.
(§3) Compound dilution series were prepared in DMSO via an approximately 3-fold serial dilution from one of the following: […]
(§4) Assay method E: 0.47 mM to 7.8 nM […]
(§5) Assay method G: 0.047 mM to 0.78 nM
(§6) or 5-fold serial dilution from one of the following: […]
(§7) Assay method B: 2.5 mM-797 nM […]
(§8) For Assay methods B, E, and G: Compound dilutions were added directly into white, low-volume assay plates (Perkin Elmer Proxiplate 384 Plus#6008280) using a Labcyte Echo in conjunction with Labcyte Access and Thermo Multidrop CombinL robotics. Compounds were then suspended in eight microliters (μL) of assay buffer (20 mM Sodium Phosphate, pH 6.0, 50 mM NaCl, 1 mM Ethylenediaminetetraacetic acid disodium salt dihydrate, 0.01% Triton X-100, 1 mM DL-Dithiothreitol) containing His-tagged bromodomain, Europium-conjugated anti-His antibody (Invitrogen PV5596) and Alexa-647-conjugated probe.
(§9) The final concentration of 1× assay mixture for assay methods A, B, C, D, E, F, and G contains 2% DMSO, 8 nM His-tagged bromodomain, 1 nM Europium-conjugated anti-His-tag antibody and 100 nM or 30 nM probe (for BDI or BDII, respectively) and compound concentration in the range of: 50 μM-16 nM for method A, 49.02 μM-15.63 nM for method B, 25 μM-423 pM for method C, 10 μM-169 pM for method D, 9.19 μM-150 pM for method E, 5 μM-85 pM for method F, and 0.92 μM-15 pM for method G.
(§10) After a one-hour equilibration at room temperature, TR-FRET ratios were determined using an Envision multilabel plate reader (Ex 340, Em 495/520).
(§11) TR-FRET data were normalized to the means of 24 no-compound controls (“high”) and 8 controls containing 1 μM un-labeled probe (“low”). Percent inhibition was plotted as a function of compound concentration and the data were fit with the 4 parameter logistic equation to obtain IC50s. Inhibition constants (Ki) were calculated from the IC50s, probe Kd and probe concentration. Typical Z′ values were between 0.65 and 0.75. The minimum significant ratio was determined to evaluate assay reproducibility (Eastwood et al., (2006) J Biomol Screen, 11: 253-261). The MSR was determined to be 2.03 for BDI and 1.93 for BDII, and a moving MSR (last six run MSR overtime) for both BDI and BDII was typically <3.

Assay [2] addresses T2, BRD4 (BDII_E352-M457) (Homo sapiens, UniProt O60885).
T2 construct: protocol; made in house
Briefly: TR-FRET bromodomain binding assay, second bromodomain of BRD4. The conditions noted are these: TR-FRET assay protocol G (compound 0.92 μM-15 pM); 30 nM probe. As to the method: as §1, §2, §3, §4, §5, §6, §7, §8, §9, §10, §11
A general note: In TR-FRET formats the signal depends on donor and acceptor labels being close together.

Turning to `CC(C)C(=O)N1Cc2c[nH]c3c(=O)n(C)cc(c23)-c2cc(CS(C)(=O)=O)ccc21` [Example 54, 4-isobutyryl-10-methyl-7-((methylsulfonyl)methyl)-3,4-dihydro-1H-1,4,10-triazadibenzo[cd,f]azulen-11(10H)-one], the results for the Ki in assay [1] and in assay [2] were 5.85 nM and 1.45 nM, respectively.
As for `Cn1cc2c3c(c[nH]c3c1=O)CN(/C=C(/C=C/c1ccccc1)c1ccccc1)c1c(F)cc(F)cc1-2` [Example 57, 4-((1Z,3E)-2,4-diphenylbuta-1,3-dien-1-yl)-5,7-difluoro-10-methyl-3,4-dihydro-1H-1,4,10-triazadibenzo[cd,f]azulen-11(10H)-one], the Ki worked out at 64.7 nM in assay [1] and 90.6 nM in assay [2].
The matching figures for `CCc1ccc(CCNC(=O)N2Cc3c[nH]c4c(=O)n(C)cc(c34)-c3cc(CS(C)(=O)=O)ccc32)cc1` [Example 63, N-(4-ethylphenethyl)-10-methyl-7-((methylsulfonyl)methyl)-11-oxo-10,11-dihydro-1H-1,4,10-triazadibenzo[cd,f]azulene-4(3H)-carboxamide]: 82.2 nM and 73.6 nM.
For `COc1cccc(CNC(=O)N2Cc3c[nH]c4c(=O)n(C)cc(c34)-c3cc(CS(C)(=O)=O)ccc32)c1` [Example 65, N-(3-methoxybenzyl)-10-methyl-7-((methylsulfonyl)methyl)-11-oxo-10,11-dihydro-1H-1,4,10-triazadibenzo[cd,f]azulene-4(3H)-carboxamide] the same measures were greater than 238 nM and 238 nM.
On to `Cn1cc2c3c(c[nH]c3c1=O)CN(C(=O)NCC1CCCCC1)c1ccc(CS(C)(=O)=O)cc1-2` [Example 67, N-(cyclohexylmethyl)-10-methyl-7-((methylsulfonyl)methyl)-11-oxo-10,11-dihydro-1H-1,4,10-triazadibenzo[cd,f]azulene-4(3H)-carboxamide], for which the Ki in assay [1] is greater than 238 nM; in assay [2], greater than 408 nM.
As for `Cn1cc2c3c(c[nH]c3c1=O)CN(C(=O)Nc1ccc(F)c(C(F)(F)F)c1)c1ccc(CS(C)(=O)=O)cc1-2` [Example 71, N-(4-fluoro-3-(trifluoromethyl)phenyl)-10-methyl-7-((methylsulfonyl)methyl)-11-oxo-10,11-dihydro-1H-1,4,10-triazadibenzo[cd,f]azulene-4(3H)-carboxamide], the Ki in assay [1] came out at 30.4 nM; in assay [2], 26.7 nM.
Regarding `CCOC(=O)C1CCC(CNC(=O)N2Cc3c[nH]c4c(=O)n(C)cc(c34)-c3cc(CS(C)(=O)=O)ccc32)CC1` (stereo not drawn) [Example 72, ethyl 4-((10-methyl-7-((methylsulfonyl)methyl)-11-oxo-3,4,10,11-tetrahydro-1H-1,4,10-triazadibenzo[cd,f]azulene-4-carboxamido)methyl)cyclohexanecarboxylate], the figures for the Ki in assay [1] and in assay [2] were 26.2 nM and 37 nM, respectively.
For `Cc1ccc(S(=O)(=O)N2Cc3c[nH]c4c(=O)n(C)cc(c34)-c3cc(CS(C)(=O)=O)ccc32)cc1` [Example 74, 10-methyl-7-((methylsulfonyl)methyl)-4-tosyl-3,4-dihydro-1H-1,4,10-triazadibenzo[cd,f]azulen-11(10H)-one] the same measures were greater than 238 nM and 369 nM.
The matching figures for `COc1ccc(S(=O)(=O)N2Cc3c[nH]c4c(=O)n(C)cc(c34)-c3cc(CS(C)(=O)=O)ccc32)cc1` [Example 76, 4-((4-methoxyphenyl)sulfonyl)-10-methyl-7-((methylsulfonyl)methyl)-3,4-dihydro-1H-1,4,10-triazadibenzo[cd,f]azulen-11(10H)-one]: greater than 238 nM and greater than 408 nM.
The matching figures for `Cn1cc2c3c(c[nH]c3c1=O)CN(S(=O)(=O)c1ccccc1)c1ccc(CS(C)(=O)=O)cc1-2` [Example 77, 10-methyl-7-((methylsulfonyl)methyl)-4-(phenylsulfonyl)-3,4-dihydro-1H-1,4,10-triazadibenzo[cd,f]azulen-11(10H)-one]: greater than 238 nM and 275 nM.
`COc1ccccc1S(=O)(=O)N1Cc2c[nH]c3c(=O)n(C)cc(c23)-c2cc(CS(C)(=O)=O)ccc21` [Example 78, 4-((2-methoxyphenyl)sulfonyl)-10-methyl-7-((methylsulfonyl)methyl)-3,4-dihydro-1H-1,4,10-triazadibenzo[cd,f]azulen-11(10H)-one]: the results for the Ki in assay [1] and in assay [2] were 216 nM and 126 nM, respectively.
The matching figures for `Cn1cc2c3c(c[nH]c3c1=O)CN(S(=O)(=O)c1ccc(Oc3ccccc3)cc1)c1ccc(CS(C)(=O)=O)cc1-2` [Example 79, 10-methyl-7-((methylsulfonyl)methyl)-4-((4-phenoxyphenyl)sulfonyl)-3,4-dihydro-1H-1,4,10-triazadibenzo[cd,f]azulen-11(10H)-one]: greater than 238 nM and greater than 408 nM.
The matching figures for `Cn1cc2c3c(c[nH]c3c1=O)CN(S(=O)(=O)c1ccc(F)cc1)c1ccc(CS(C)(=O)=O)cc1-2` [Example 80, 4-((4-fluorophenyl)sulfonyl)-10-methyl-7-((methylsulfonyl)methyl)-3,4-dihydro-1H-1,4,10-triazadibenzo[cd,f]azulen-11(10H)-one]: greater than 238 nM and greater than 408 nM.
`Cn1cc2c3c(c[nH]c3c1=O)CN(C(=O)c1ccc3ccccc3c1)c1ccc(CS(C)(=O)=O)cc1-2` [Example 81, 4-(2-naphthoyl)-10-methyl-7-((methylsulfonyl)methyl)-3,4-dihydro-1H-1,4,10-triazadibenzo[cd,f]azulen-11(10H)-one]: the Ki was found to be 51.7 nM in assay [1] and 32.3 nM in assay [2].
For `Cn1cc2c3c(c[nH]c3c1=O)CN(c1ccc(F)cc1F)c1ncncc1-2` [Example 83, 4-(2,4-difluorophenyl)-10-methyl-3,4-dihydro-1H-1,4,5,7,10-pentaazadibenzo[cd,f]azulen-11(10H)-one] the same measures were greater than 238 nM and greater than 408 nM.
For `COCCOC(=O)N1Cc2c[nH]c3c(=O)n(C)cc(c23)-c2cc(CS(C)(=O)=O)ccc21` [Example 86, 2-methoxyethyl 10-methyl-7-((methylsulfonyl)methyl)-11-oxo-10,11-dihydro-1H-1,4,10-triazadibenzo[cd,f]azulene-4(3H)-carboxylate] the same measures were 10.3 nM and 13.9 nM.
Consider `CCCCCOC(=O)N1Cc2c[nH]c3c(=O)n(C)cc(c23)-c2cc(CS(C)(=O)=O)ccc21` [Example 88, pentyl 10-methyl-7-((methylsulfonyl)methyl)-11-oxo-10,11-dihydro-1H-1,4,10-triazadibenzo[cd,f]azulene-4(3H)-carboxylate], for which the values for the Ki in assay [1] and in assay [2] were 3.46 nM and 1.76 nM, respectively.
Take `Cn1cc2c3c(c[nH]c3c1=O)CN(C(=O)OCCCCCl)c1ccc(CS(C)(=O)=O)cc1-2` [Example 89, 4-chlorobutyl 10-methyl-7-((methylsulfonyl)methyl)-11-oxo-10,11-dihydro-1H-1,4,10-triazadibenzo[cd,f]azulene-4(3H)-carboxylate]: the Ki was determined as 5.77 nM in assay [1] and 4.53 nM in assay [2].
The matching figures for `Cn1cc2c3c(c[nH]c3c1=O)CN(C(=O)OCC(C)(C)C)c1ccc(CS(C)(=O)=O)cc1-2` [Example 92, neopentyl 10-methyl-7-((methylsulfonyl)methyl)-11-oxo-10,11-dihydro-1H-1,4,10-triazadibenzo[cd,f]azulene-4(3H)-carboxylate]: 3.74 nM and 5.58 nM.
The matching figures for `Cn1cc2c3c(c[nH]c3c1=O)CN(C(=O)OCCF)c1ccc(CS(C)(=O)=O)cc1-2` [Example 96, 2-fluoroethyl 10-methyl-7-((methylsulfonyl)methyl)-11-oxo-10,11-dihydro-1H-1,4,10-triazadibenzo[cd,f]azulene-4(3H)-carboxylate]: 3.46 nM and 1.61 nM.
For `COc1ccc(OC(=O)N2Cc3c[nH]c4c(=O)n(C)cc(c34)-c3cc(CS(C)(=O)=O)ccc32)cc1` [Example 97, 4-methoxyphenyl 10-methyl-7-((methylsulfonyl)methyl)-11-oxo-10,11-dihydro-1H-1,4,10-triazadibenzo[cd,f]azulene-4(3H)-carboxylate] the same measures were 3.21 nM and 1.35 nM.

The term Ki denotes a dissociation constant, usually derived from enzyme kinetics or from competition with a known ligand. A low value points to tighter binding.

The values above are taken from patent publication US10035800B2 (AbbVie Inc., priority 2013, dated 2018).
